Molecular target: T1, human α4β2 subtype of nicotinic acetylcholine receptors (Homo sapiens, UniProt P17787+P43681)
T1 construct: expressed in transfected cells; host or cells: Xenopus laevis oocytes injected with hnACh-R α4 and β2 cRNA (pSP64 polyA vector)
Experiment: Agonist activity at human α4β2 nicotinic acetylcholine receptors expressed in Xenopus oocytes (membrane potential holding method)
Assay type: cell-based
Conditions: for EC50: Xenopus oocytes, held at −50 mV, peak inward current, read-out: Agonist activity (ED50); for control % by response at 100 μM of the test compounds: 100 μM test compound vs response at 10 μM acetylcholine (100%)
Description: The agonist effect in human α4β2 subtype of nicotinic acetylcholine receptors are examined by using human nicotinic acetylcholine receptors prepared in oocytes of Xenopus laevis, which is injected with cRNA from the corresponding cloning cDNA of human α4 and β2 subunits of nicotinic acetylcholine receptors, and to measure the expression of the electric response by adding the test compounds to perfusion solution by means of membrane potential holding method.
The agonist activities of the compounds of the present invention at human 4β2 subtype of nicotinic acetylcholine receptors was evaluated by the following method, which was modified method described by Papke R. L., Thinschmidt J. S., Moulton B. A., Meyer E. M. & Poirier A., Br. J. Pharmacol., 120, 429-438 (1997).
(1) Preparation of cRNA of Human α4β2 Subtype of Nicotinic Acetylcholine Receptors
The cloning of human nicotinic acetylcholine receptor (hnACh-R) α4 cDNA and hnAC-R β2 cDNA were performed, in accordance with the conventional manners, by synthesizing the each DNA primers corresponding to the sequences of hnACh-R α4 cDNA and hnACh-R β2 cDNA [Monteggia L. M. et al., Gene, 155, 189-193 (1995); and Anand R., & Lindstrom J., Nucl. Acids Res., 18, 4272 (1990)], and obtained hnACh-R α4 cDNA and hnACh-R β2 cDNA by polymerase chain reaction (PCR), respectively. The obtained hnACh-R α4 cDNA and hnACh-R β2 cDNA were inserted to the cRNA expression vector (pSP64 polyA) having SP6 RNA promoter to construct hnACh-R α4/pSP64 polyA and hnACh-R β2/pSP64 polyA, respectively. After cutting from expression vector by restriction enzyme (EcoRI), transcription was performed by affecting SP6 RNA polymerase in the presence of cap analogues to obtain hnACh-R α4 cRNA and hnACh-R β2 cRNA, respectively.
(2) Expression of Human α4β2 Subtype Nicotinic Acetylcholine Receptors in Xenopus oocytes
Oocytes were purchased from Kitanihonseibutsukyohzai Co., Ltd., which were already enucleated from Xenopus laevis, and used in this experiment.
The oocytes were treated with collagenase (Sigma type I; 1 mg/ml) in calcium-free modified Birth's solution (88 mM of NaCl, 1 mM of KCl, 2.4 mM of NaHCO3, 0.82 mM of MgSO4, 15 mM of HEPES, pH 7.6) under gently stirring at room temperature for 90 minutes, and washed out the enzyme from the tissue. Then, oocytes were separated from ovarian follicle by tweezers, and isolated oocytes were placed in antibiotics containing modified Birth's solution (88 mM of NaCl, 1 mM of KCl, 2.4 mM of NaHCO3, 0.82 mM of MgSO4, 15 mM of HEPES, pH 7.6, and 0.1 v/v % of mixture solution containing of penicillin and streptomycin for incubation; Sigma Co.). […] In oocytes, heterogeneous quintuple [(α4)2(β2)3] was composed by translation of injected cRNAs, and ion channel receptors were constructed on cell membrane.
(3) Agonist Activities at Human α4β2 Subtype of Nicotinic Acetylcholine Receptors
The recordings of responses at human α4β2 subtype of nicotinic acetylcholine receptors by means of membrane potential holding method were performed as follow. […] The membrane electric potentials were held at −50 mV by mean of the two electric membranes potential holding method (CEZ-1250; Nihon Kohden Co.). Test compounds were added to the perfusion solution, and recorded the peak strength of induced inward current. In order to normalize the responses of test compounds, the responses with acetylcholine (Ach) were recorded before and after application of the test compounds. Generally in the oocytes just after isolated, the response of intrinsic muscarinic acetylcholine receptors, which is inward electric current caused by activation of calcium dependence chloride ion channels with increase of the intracellular calcium concentration by stimulation of receptors, is observed.

T1 sequence (P43681 29-627 limits assumed): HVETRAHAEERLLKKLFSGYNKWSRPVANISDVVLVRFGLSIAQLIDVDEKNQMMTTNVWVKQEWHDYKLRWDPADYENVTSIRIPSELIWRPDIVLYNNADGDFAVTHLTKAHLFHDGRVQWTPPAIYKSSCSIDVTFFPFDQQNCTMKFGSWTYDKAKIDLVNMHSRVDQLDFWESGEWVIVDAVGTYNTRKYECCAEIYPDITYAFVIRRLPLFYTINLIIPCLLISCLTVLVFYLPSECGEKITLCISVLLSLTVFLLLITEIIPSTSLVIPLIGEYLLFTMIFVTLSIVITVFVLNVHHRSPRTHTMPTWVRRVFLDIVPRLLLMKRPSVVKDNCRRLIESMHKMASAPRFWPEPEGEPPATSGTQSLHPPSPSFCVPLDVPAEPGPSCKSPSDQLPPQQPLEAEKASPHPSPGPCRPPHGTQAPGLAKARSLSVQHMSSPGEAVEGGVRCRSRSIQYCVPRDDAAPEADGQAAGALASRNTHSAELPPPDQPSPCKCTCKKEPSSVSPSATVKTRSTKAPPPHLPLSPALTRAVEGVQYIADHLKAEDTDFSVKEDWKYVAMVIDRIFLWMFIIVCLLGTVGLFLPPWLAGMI
T1 sequence (P17787 26-502): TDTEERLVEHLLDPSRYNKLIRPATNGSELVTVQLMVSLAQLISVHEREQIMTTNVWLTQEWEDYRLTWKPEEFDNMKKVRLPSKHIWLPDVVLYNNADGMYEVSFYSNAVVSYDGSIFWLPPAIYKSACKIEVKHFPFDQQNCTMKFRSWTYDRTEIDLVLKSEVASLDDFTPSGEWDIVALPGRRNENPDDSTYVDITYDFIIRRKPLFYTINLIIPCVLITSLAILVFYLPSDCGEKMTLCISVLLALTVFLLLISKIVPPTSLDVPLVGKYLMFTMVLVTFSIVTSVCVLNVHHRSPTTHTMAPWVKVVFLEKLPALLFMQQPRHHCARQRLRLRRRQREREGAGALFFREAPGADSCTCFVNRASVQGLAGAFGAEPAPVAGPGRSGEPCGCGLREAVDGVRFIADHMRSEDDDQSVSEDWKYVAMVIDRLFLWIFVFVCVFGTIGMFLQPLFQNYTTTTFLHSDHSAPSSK

| SMILES | EC50 [µM] | control % by response at 100 μM of the test compounds |
| --- | --- | --- |
| Nc1nccn1CCc1cncc(Br)c1 [Compound 25, 2-amino-1-[2-(5-bromo-3-pyridyl)ethyl]imidazole] | 3 |  |
| Nc1nccn1CCc1cncnc1 [Compound 29, 2-amino-1-[2-(5-pyrimidyl)ethyl]imidazole] | 3.7 |  |
| Cc1ccc(CCn2ccnc2N)cn1 [Compound 11, 2-amino-1-[2-(6-methyl-3-pyridyl)ethyl]imidazole] | 7.5 |  |
| Cc1cncc(CCn2ccnc2N)c1 [Compound 27, 2-amino-1-[2-(5-methyl-3-pyridyl)ethyl]imidazole] | 6.2 |  |
| N=C1NCCCN1CCc1ccc(Cl)nc1 [Compound 12, 1-[2-(6-chloro-3-pyridyl)ethyl]-2-imino-1,2,3,4,5,6-hexahydro-pyrimidine] |  | (8%) |
| Nc1nccn1CCc1cccnn1 [Compound 30, 2-amino-1-[2-(3-pyridazinyl)ethyl]imidazole] | 46 |  |
| Nc1nccn1CCc1ccnnc1 [Compound 34, 2-amino-1-[2-(4-pyridazinyl)ethyl]imidazole] | 170 |  |
| Nc1nccn1CCc1cccnc1 [Compound 14, 2-amino-1-[2-(3-pyridyl)ethyl]imidazole] | 2 |  |
| Nc1nccn1CCc1cnccn1 [Compound 31, 2-amino-1-[2-(2-pyrazinyl)ethyl]imidazole] |  | (15%) |
| Nc1nccn1CCc1cnc(Cl)c(Cl)c1 [Compound 13, 2-amino-1-[2-(5,6-dichloro-3-pyridyl)ethyl]-imidazole] | 2.4 |  |
| Nc1nccn1CCc1cnc(Cl)s1 [Compound 23, 2-amino-1-[2-(2-chloro-5-thiazolyl)ethyl]imidazole] | 13 |  |

Reference: patent US20030134848A1, “Substituted 1-aza-2-imino-heterocycles and their use as nicotinic acetylcholin receptors activators” (priority 2000, published 2003)
